From patent US9132086B2, “Compositions for and methods of controlling olfactory responses to odorants” (Auburn University, priority 2006, dated 2015) come the findings set out here.

For assay [1], the system named is olfactory receptor neurons. In words: Whole-cell patch-clamp recording of single olfactory neurons. The assay is classed as cell-based, rat. As to conditions: FIG. 7. From the text:
FIG. 6 illustrates electrophysiological recordings from a rat olfactory epithelium and a single olfactory neuron where the stimulus was a 0.5-s pulse of air or an odorant mixture. The odorant concentration was constant for all traces. […] Vapor of odorants were collected above the odorant solutions (in water) of concentrations shown. […] The stimulus was a 0.5 second pulse of odorant/zinc particle mixture. Downward direction indicates inward current.
FIG. 7 illustrates results from EGTA experiments and Zn^+2 ions experiments. […] It is widely known that EGTA binds multivalent metals. When Zn metal nanoparticles are bound by EGTA, the number of particles participating in olfactory signal transduction is reduced, and the odorant response is decreased. […] When the patch electrode is filled with a solution containing 500 pM EGTA, the odorant-evoked current changes markedly. Few minutes after beginning the perfusion, a progressive […] in the amplitude of the odorant triggered inward currents is noted.

A further assay concerns rat olfactory epithelium. In words: EOG recording of rat olfactory epithelium, odorant puffs. The assay is classed as cell-based. To be noted: FIG. 7 chart 720; external perfusion of ZnCl2 solutions, same range of concentrations as nanoparticles (10^−9-10^−15 M). From the text:
The averaged activity of the receptor neuron to an odor can be measured by an electroolfactogram (EOG). In this process, fragments of olfactory epithelaia, either cultured or dissected from natural sources (e.g., mice and dogs), are placed in an EOG recording chamber with a buffer solution. The epithelial cilia are exposed. Electrodes are connected to the tissues through a patch-clamp amplifier to detect electrical activity of the olfactory epithelia. In general air puff or plums of an odorant mixture are applied over the olfactory epithelia through a small pipet or capillary, before and after being treated with the metal composition, described in detail below. The amplitude of the electrical signal to the amount of the odorant is plotted over time after the electrical signal is amplified and filtered.
FIG. 3C is a graph 370 showing amplitude plots 371, 373, 375 and 377 of Electroolfactogram recordings. In this case rat olfactory tissue was placed in an EOG recording chamber with a buffer solution and connected to electrodes through an amplifier. Air puffs or plumes of an odorant mixture are applied over the rat olfactory tissue and the electrical response was measured and the normalized peak amplitudes were plotted over time over time.
FIG. 5 illustrates EOG traces from rat olfactory epithelium. Responses were induced by air odorants and a mixture of odorants and zinc metal particles. […]

Regarding `O=C(O)CN(CCOCCOCCN(CC(=O)O)CC(=O)O)CC(=O)O` [EGTA, ethylene glycol tetraacetic acid], the “effect on odorant response measured by patch-clamp” value in assay [1] (500 pM perfused inside olfactory neurons) is given as “clearly inhibit odorant response”. In assay [1] (perfused inside olfactory neurons), the “dose dependence of the effect on odorant response” value was “dose dependent”.
As to `[Zn+2]` [Zn^+2 ions, ZnCl2], in the assay with rat olfactory epithelium, the “odorant response by olfactory receptor neurons” value was “reduced”.
